Experimental data reported in patent US20110098219A1, “System for Curing Hepatic Cancer with Leptin” (KAOHSIUNG MEDICAL UNIVERSITY, priority 2009, published 2011).

Columns and labels:
Format in all cases: cell-based
[1] = tested on: liver cancer cells (hepatocellular carcinoma cell line); experiment: XTT assay, growth of liver cancer cells
Procedure: Please refer to FIG. 2, which is a view showing leptin's effect on growth of liver cancer cells. As shown in the figure, for acquiring effect of leptin on liver cancer cells, the preferred embodiment uses leptin having different doses, where the high-dose leptin has 100 nano-grams (ng) and the low-dose leptin has 10 ng. The 10 ng leptin is conformed to the physiological concentration of normal human body for observing effect of leptin on the cells. In the other hand, the 100 ng leptin is used to show whether a higher levels of leptin obtains a higher effect on the cells.
Please refer to FIG. 3, which is a view showing MPA's effect on growth of liver cancer cells. As shown in the figure, the preferred embodiment applies MPA having different doses to liver cancer cells.
Please refer to FIG. 4, which is a view showing effect of MPA+leptin on growth of liver cancer cells. As shown in the figure, the preferred embodiment applies MPA combined with leptin to liver cancer cells, where MPA has different doses and leptin has different doses.
Please refer to FIG. 9, which is a view showing reduced effect of MPA+leptin by suppressing leptin receptor expression. As shown in the figure, a 20 nano-moles (nM) of leptin receptor, siRNA, is transferred to cells to be cultured a day and is cultured in a serum-free medium for the next day. Then, the cells are processed with MPA+leptin for 24 hours to be analyzed through XTT assay. […] Thus, it is confirmed that leptin enhances MPA's suppression on the cells through the leptin receptor.
Please refer to FIG. 10A and FIG. 10B, which are views showing apoptosis of cells on increasing expression of leptin receptor and expression of progesterone receptor respectively. As shown in the figures, the preferred embodiment makes ob-Rb plasmid transfected to cells to be cultured a day and is cultured in a serum-free medium for the next day. Then, the cells are processed with MPA+leptin for 24 hours to be analyzed through XTT assay. […] Besides, the long-form Ob-R enhances expression of the progesterone receptor. Again, the preferred embodiment makes PgR plasmid transfected to cells to be cultured a day and is cultured in a serum-free medium for the next day. Then, the cells are processed with MPA+leptin for 24 hours to be analyzed through XTT assay.
Please refer to FIG. 15A to FIG. 16B, which are views showing cells containing very much leptin within; suppressed growth of the cells by using MPA; and STAT3- and MAPK-signal paths of the cells after MPA is applied. As shown in the figures, while leptin is added from outside in state 13 to suppress liver cancer cells with MPA+leptin, the preferred embodiment here transfers expression plasmid of leptin (pcLeptin) to liver cancer cells to be cultured for a day; and a serum-free medium is used for the next day. Then, after the cells are processed with 10^−4M MPA for 24 hours, cell growth is analyzed through XTT assay. In FIG. 15A, leptin gene is transferred to cells for a short time for obtaining very much leptin within the cells by themselves. After applying MPA to the cells for 24 hours, it is confirmed that MPA's suppression on liver cancer cells is enhanced by a lot of leptin self-generated within the cells. Moreover, after obtaining a lot of leptin, medium is collected for immunoprecipitation and further western blotting. […] Then, after the cells are processed with 10^−4 M MPA for 24 hours, JAK/STAT-related proteins are analyzed through western blotting.

[2] = tested on: liver cancer cells; experiment: Flow cytometry, cell cycle of liver cancer cells; settings: MPA only, 24 hours
Procedure: Please refer to FIG. 6A and FIG. 6B, which are views showing effect of MPA+leptin on cell cycle. As shown in the figures, for further recognizing role of MPA+leptin for liver cancer cells, the preferred embodiment applies leptin only, MPA only and MPA+leptin on liver cancer cells for 24 hours and a flow cytometry is used to show their effects on cell cycle. Furthermore, sub-G1/apoptosis parts in the cell cycle are analyzed through student's t-test.

[3] = tested on: JAK/STAT path; experiment: Western blotting of JAK/STAT path proteins in liver cancer cells; settings: 24 hours
Procedure: Please refer to FIG. 11, which is a view showing expression of JAK/STAT path after applied with a drug. As shown in the figure, the preferred embodiment analyzes related proteins of liver cancer cells through western blotting after applied with MPA+leptin for 24 hours.
Please refer to FIG. 13A and FIG. 13A, which are views showing expressions of proteins of JAK/STAT path and proteins of MAPK path after applied with a drug for a short time. As shown in the figures, the preferred embodiment processes liver cancer cells with high-dose leptin, high-dose MPA and high-dose leptin combined with high-dose MPA for 30 minutes. Then, related JAK/STAT proteins are collected for analyzing their expressions through western blotting.
Please refer to FIG. 14, which is a view showing reduced p-STAT3 degradation by suppressing the ERK1/2 activation and the PIAS3 expression. […] The preferred embodiment uses a 10^−6M p-ERK1/2 inhibitor (U0126) for 4 hours before a drug is applied; then, liver cancer cells are applied with the drug of MPA+leptin for 3 hours to collect cellular proteins for analyzing expression of related proteins through western blotting. […] As a conclusion, MPA activates ERK1/2 to indirectly induce PIAS3 expression for suppressing p-STAT3 (Tyr705) for cell apoptosis, where leptin enhances activation of ERK1/2 with MPA for increasing cell apoptosis.
Please refer to FIG. 15A to FIG. 16B, which are views showing cells containing very much leptin within; suppressed growth of the cells by using MPA; and STAT3- and MAPK-signal paths of the cells after MPA is applied. […] Then, after the cells are processed with 10^−4M MPA for 24 hours, cell growth is analyzed through XTT assay. […] Then, after the cells are processed with 10^−4 M MPA for 24 hours, JAK/STAT-related proteins are analyzed through western blotting.

## CC(=O)O[C@]1(C(C)=O)CC[C@H]2[C@@H]3C[C@H](C)C4=CC(=O)CC[C@]4(C)[C@H]3CC[C@@]21C [MPA, medroxyprogesterone acetate]
[1]; cells transfected with pcLeptin, 10^-4 M MPA, 24 hours
  MPA's suppression on liver cancer cells: enhanced
[1]; high-dose MPA 10^-4 M, 24 hours
  suppressive effect on liver cancer cells: obvious suppressive effect
[1]; high-dose MPA 10^-4 M, 48 hours
  suppressive effect on liver cancer cells: the effect is enhanced
[1]; low-dose MPA 10^-6 M, 24 hours or 48 hours
  suppressive effect on liver cancer cells: does not have obvious suppressive effect
[2]
  G1 and G2/M: decreased trend
  S: increased trend
  sub-G1: increasing trend
[3]
  p-ob-R, ob-R and PgR expression: suppresses
[3]; pcLeptin-transfected cells, 10^-4 M MPA
  activation of STAT3 compared with cells without much leptin: more obviously suppressed
